Measured values taken from ChEMBL document CHEMBL4402608 (J Med Chem, 2020).

What was measured:
[1] = target: Atypical chemokine receptor 3 (Homo sapiens, UniProt P25106); assay: Agonist activity at human PK1-tgged CXCR7 expressed in CHOK1 cells assessed as induction of beta-arrestin recruitment at 10 uM measured after 90 mins by beta-galactosidase based PathHunter assay; format: cell-based
[2] = target: D(2) dopamine receptor (Homo sapiens, UniProt P14416); assay: Agonist activity at human D2RL expressed in CHOK1/human U2OS cells assessed as induction of beta-arrestin recruitment at 10 uM measured after 90 mins by beta-galactosidase based PathHunter assay; format: cell-based
[3] = target: 5-hydroxytryptamine receptor 6 (Homo sapiens, UniProt P50406)
[4] = target: Muscarinic acetylcholine receptor M1 (Homo sapiens, UniProt P11229)

Compound | Activity [1] | Activity [2] | Ki [3] | Ki [4]
CCCN(CC[C@]1(O)C[C@H](NC(=O)c2ccc3ccccc3c2)C1)[C@H]1CCc2nc(N)sc2C1 | Active | Active | – | –
CCCN[C@H]1CCc2nc(N)sc2C1 [PRAMIPEXOLE] | – | – | > 10 µM | > 10 µM
